Assay results from article PMC6225304, “Design, Synthesis, and Neuroprotective Effects of a Series of Pyrazolines against 6-Hydroxydopamine-Induced Oxidative Stress” (Molecules : A Journal of Synthetic Chemistry and Natural …, 2018).
“And” between values parts separate entries of the source, which are not always exact repeats. Equal entries are not always repeated. Where two headings read alike, the source gives them in different places.

Key:
[1] = tested on: differentiated PC-12 Adh cells; experiment: WST-1 cell viability assay for non-cytotoxic concentrations; type: cell-based, rat; conditions: for IC50: Rattus norvegicus, read-out: IC50 (cell viability assay)
Method: (§1) PC-12 Adh cells were cultured in 10% horse serum, 5% fetal bovine serum, and 1% penicillin-streptomycin containing DMEM growth medium, at 37 °C in a humidified incubator with 5% CO2. The proliferating cells were passaged 1:2 to new 25 and/or 75 cm^2 flasks and cell stocks were prepared in order to use in future experiments. In order to induce PC-12 Adh cell differentiation into neuronal phenotype, growth medium was changed with 1% fetal bovine serum, 1% penicillin-streptomycin and 100 nM NGF containing DMEM differentiation medium.
Differentiated PC-12 Adh cells were stained with Trypan blue solution and counted by a cell counter device (Cedex XS, Innovatis, Malvern, PA, USA) in order to determine the appropriate cell numbers before the experiments.
In order to obtain non-cytotoxic concentrations of the compounds, the viability of neuronal cells was measured by using 2-(4-iodophenyl)-3-(4-nitrophenyl)-5-(2,4-disulfophenyl)-2H-tetrazolium sodium salt (WST-1) assay (Roche, Mannheim, Germany). The test is based on the cleavage of the tetrazolium salt WST-1 in formazan by mitochondrial dehydrogenases in viable cells. The formazan dye was quantified in a scanning multiwell spectrophotometer by measuring the absorbance of the dye at 420 nm. The differentiated PC-12 Adh cells were scratched and plated onto 96-well culture plates at 5 × 10^3 density per well. […] After the incubation period, the cell proliferation reagent WST-1 (10 μL per well) was added to the wells; and absorbances were measured after 3 h using a Cytation 3 cell imaging multi-mode reader at 420 nm (BioTek, Winooski, VT, USA). The measured absorbances directly correlated to the number of viable cells.

[2] = tested on: differentiated PC-12 Adh cells; experiment: Neuroprotective activity against 6-OHDA-induced neurotoxicity (WST-1 cell viability); type: cell-based, rat; conditions: for induction in cell viability percentage compared with the 6-OHDA-positive control group (statistical analysis): 100 µg/mL, one-way ANOVA and Tukey’s post hoc test, ** p < 0.01
Method: as §1
(§2) The differentiated PC-12 Adh cells were scratched and plated onto 96-well culture plates at 5 × 10^3 density per well. […] After 24 h, the neuroprotective effects of the compounds were determined by WST-1 cell viability assay as explained above. The graphics were drawn according to the cell viability, which was expressed as percentage of the surviving control cells in the study.
(§3) The graphics were drawn with Graphpad Prism 6.0 software and statistically analyzed using one-way ANOVA and Tukey’s post hoc test.

[3] = as above; type: cell-based, rat; conditions: rat, 150 µM 6-OHDA alone for 24 h (positive control); % of the control
Method: as §1, §2, §3

[4] = differentiated PC-12 Adh cells, 24 h treatment, WST-1
[5] = 100 µg/mL compound for 6 h, then 150 µM 6-OHDA for 24 h

| SMILES | IC50 [1, 4] [µg/mL] | other results |
| --- | --- | --- |
| NS(=O)(=O)c1ccc(N2N=C(c3cccs3)CC2c2ccc3c(c2)OCO3)cc1 (centres unmarked) [Compound 4i, 1-(4-Sulfonamidophenyl)-3-(2-thienyl)-5-(1,3-benzodioxol-5-yl)-2-pyrazoline] | > 400 | – |
| Cc1ccc(C2CC(c3ccco3)=NN2c2ccc(F)cc2)cc1 (centres unmarked) [Compound 3c, 1-(4-Fluorophenyl)-3-(2-furanyl)-5-(4-methylphenyl)-2-pyrazoline] | 353 | – |
| CS(=O)(=O)c1ccc(N2N=C(c3cccs3)CC2c2ccc3c(c2)OCO3)cc1 (centres unmarked) [Compound 4h, 1-(4-Methylsulfonylphenyl)-3-(2-thienyl)-5-(1,3-benzodioxol-5-yl)-2-pyrazoline] | > 400 | reduction in cell viability [2, 5]: 23%; induction in cell viability percentage compared with the 6-OHDA-positive control group (statistical analysis) [2]: significant |
| COc1ccc(N2N=C(c3ccco3)CC2c2ccc(C)cc2)cc1 (centres unmarked) [Compound 3g, 1-(4-Methoxyphenyl)-3-(2-furanyl)-5-(4-methylphenyl)-2-pyrazoline] | > 400 | – |
| NCCc1cc(O)c(O)cc1O [Compound 6-OHDA, 6-hydroxydopamine] | – | viability at 24 h, 150 µM [3]: 57%; reduction in cell viability ([2]; 150 µM 6-OHDA alone for 24 h (positive control)): 42.13% and 43% and 42%; IC50 ([1]; PC-12, 24 h): 150 µM |
| Cc1ccc(C2CC(c3ccco3)=NN2c2ccc(Br)cc2)cc1 (centres unmarked) [Compound 3e, 1-(4-Bromophenyl)-3-(2-furanyl)-5-(4-methylphenyl)-2-pyrazoline] | 398 | – |
| Brc1ccc(N2N=C(c3cccs3)CC2c2ccc3c(c2)OCO3)cc1 (centres unmarked) [Compound 4e, 1-(4-Bromophenyl)-3-(2-thienyl)-5-(1,3-benzodioxol-5-yl)-2-pyrazoline] | > 400 | – |
| Cc1ccc(C2CC(c3ccco3)=NN2c2ccccc2)cc1 (centres unmarked) [Compound 3a, 1-Phenyl-3-(2-furanyl)-5-(4-methylphenyl)-2-pyrazoline] | > 400 | – |
| N#Cc1ccc(N2N=C(c3cccs3)CC2c2ccc3c(c2)OCO3)cc1 (centres unmarked) [Compound 4b, 1-(4-Cyanophenyl)-3-(2-thienyl)-5-(1,3-benzodioxol-5-yl)-2-pyrazoline] | > 400 | – |
| c1ccc(N2N=C(c3cccs3)CC2c2ccc3c(c2)OCO3)cc1 (centres unmarked) [Compound 4a, 1-Phenyl-3-(2-thienyl)-5-(1,3-benzodioxol-5-yl)-2-pyrazoline] | > 400 | – |
| Cc1ccc(C2CC(c3ccco3)=NN2c2ccc(C#N)cc2)cc1 (centres unmarked) [Compound 3b, 1-(4-Cyanophenyl)-3-(2-furanyl)-5-(4-methylphenyl)-2-pyrazoline] | 204 | – |
| Cc1ccc(/C=C/C(=O)c2ccco2)cc1 [Compound 1, 1-(2-Furanyl)-3-aryl-2-propen-1-one] | 12 | reduction in cell viability ([2]; 10 µg/mL compound for 6 h, then 150 µM 6-OHDA for 24 h): 40%; reduction in cell viability [2, 5]: 97%; melting point: 111 to 113 °C; cytotoxicity (effect on cell viability, in words) ([1]; differentiated PC-12 Adh cells, 100 µg/mL): highly cytotoxic |
| Cc1ccc(C2CC(c3ccco3)=NN2c2ccc(Cl)cc2)cc1 (centres unmarked) [Compound 3d, 1-(4-Chlorophenyl)-3-(2-furanyl)-5-(4-methylphenyl)-2-pyrazoline] | > 400 | – |
| COc1ccc(N2N=C(c3cccs3)CC2c2ccc3c(c2)OCO3)cc1 (centres unmarked) [Compound 4g, 1-(4-Methoxyphenyl)-3-(2-thienyl)-5-(1,3-benzodioxol-5-yl)-2-pyrazoline] | 252 | – |
| Cc1ccc(N2N=C(c3cccs3)CC2c2ccc3c(c2)OCO3)cc1 (centres unmarked) [Compound 4f, 1-(4-Methylphenyl)-3-(2-thienyl)-5-(1,3-benzodioxol-5-yl)-2-pyrazoline] | 239 | – |
| O=C(/C=C/c1ccc2c(c1)OCO2)c1cccs1 [Compound 2, 1-(2-Thienyl)-3-aryl-2-propen-1-one] | 345 | reduction in cell viability [2, 5]: 34.1% |
| Clc1ccc(N2N=C(c3cccs3)CC2c2ccc3c(c2)OCO3)cc1 (centres unmarked) [Compound 4d, 1-(4-Chlorophenyl)-3-(2-thienyl)-5-(1,3-benzodioxol-5-yl)-2-pyrazoline] | > 400 | – |
| Cc1ccc(C2CC(c3ccco3)=NN2c2ccc(S(C)(=O)=O)cc2)cc1 (centres unmarked) [Compound 3h, 1-(4-Methylsulfonylphenyl)-3-(2-furanyl)-5-(4-methylphenyl)-2-pyrazoline] | > 400 | reduction in cell viability [2, 5]: 20%; induction in cell viability percentage compared with the 6-OHDA-positive control group (statistical analysis) [2]: significant |
| Cc1ccc(C2CC(c3ccco3)=NN2c2ccc(S(N)(=O)=O)cc2)cc1 (centres unmarked) [Compound 3i, 1-(4-Sulfonamidophenyl)-3-(2-furanyl)-5-(4-methylphenyl)-2-pyrazoline] | 205 | – |
| Cc1ccc(C2CC(c3ccco3)=NN2c2ccc(C)cc2)cc1 (centres unmarked) [Compound 3f, 1-(4-Methylphenyl)-3-(2-furanyl)-5-(4-methylphenyl)-2-pyrazoline] | > 400 | – |
| Fc1ccc(N2N=C(c3cccs3)CC2c2ccc3c(c2)OCO3)cc1 (centres unmarked) [Compound 4c, 1-(4-Fluorophenyl)-3-(2-thienyl)-5-(1,3-benzodioxol-5-yl)-2-pyrazoline] | > 400 | – |
